Reference: US20110071108A1, “Beta-Cyclodextrin Derivatives as Antibacterial Agents” (Pinnacle Pharmaceuticals, Inc., priority 2005, published 2011)
Where two headings read alike, the source gives them in different places.

How the values were obtained:
Enterococcus faecium = test: Bacterial panel testing, MIC by broth microdilution; type: cell-based; settings: 20-24 hours growth
How it was run: (§1)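 Read-out: clear (no-growth) wells scored after 20-24 h growth to define compound potency. Inoculum was McFarland-matched bacteria from 2-4 h cultures at 37° C in strain-appropriate Mueller-Hinton or Brain Heart infusion media. Compound (10 μg/ml DMSO stock) was serially diluted twofold across plate columns.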

Eschericia coli = test: as above; type: cell-based; settings: 20-24 hours growth
How it was run: as §1

Pseudomonas aeruginosa = test: as above; type: cell-based; settings: 20-24 hours growth
How it was run: as §1

Salmonella choleraesuis = test: as above; type: cell-based; settings: 20-24 hours growth
How it was run: as §1

Staphylococcus aureus = test: as above; type: cell-based; settings: 20-24 hours growth
How it was run: as §1

Lungs cancer cells A549 [1] = system: Lungs cancer cells A549
Lungs cancer cells A549 [2] = test: Mammalian cytotoxicity
Bacillus atrophaeus = test: Bacterial panel testing, MIC by broth microdilution; type: cell-based; settings: 20-24 hours growth
How it was run: as §1

SMILES	MIC EF (Enterococcus faecium) [mg/L]	MIC EC (Eschericia coli) [mg/L]	MIC PA (Pseudomonas aeruginosa) [mg/L]	MIC SC (Salmonella choleraesuis) [mg/L]	MIC SA (Staphylococcus aureus) [mg/L]	Mammalian Cytotoxicity IC50 (Lungs cancer cells A549 [1]) [mg/L]	Mammalian Cytotoxicity IC50 (Lungs cancer cells A549 [2]) [mg/L]	MIC BA (Bacillus atrophaeus) [mg/L]
Cl.Cl.Cl.Cl.Cl.Cl.Cl.NCCSC[C@H]1O[C@@H]2O[C@H]3[C@H](O)[C@@H](O)[C@@H](O[C@H]4[C@H](O)[C@@H](O)[C@@H](O[C@H]5[C@H](O)[C@@H](O)[C@@H](O[C@H]6[C@H](O)[C@@H](O)[C@@H](O[C@H]7[C@H](O)[C@@H](O)[C@@H](O[C@H]8[C@H](O)[C@@H](O)[C@@H](O[C@H]1[C@H](O)[C@H]2O)O[C@@H]8CSCCN)O[C@@H]7CSCCN)O[C@@H]6CSCCN)O[C@@H]5CSCCN)O[C@@H]4CSCCN)O[C@@H]3CSCCN	>200	>200	>200	>200	>200	829		
Cl.Cl.Cl.Cl.Cl.Cl.Cl.NCCCSC[C@H]1O[C@@H]2O[C@H]3[C@H](O)[C@@H](O)[C@@H](O[C@H]4[C@H](O)[C@@H](O)[C@@H](O[C@H]5[C@H](O)[C@@H](O)[C@@H](O[C@H]6[C@H](O)[C@@H](O)[C@@H](O[C@H]7[C@H](O)[C@@H](O)[C@@H](O[C@H]8[C@H](O)[C@@H](O)[C@@H](O[C@H]1[C@H](O)[C@H]2O)O[C@@H]8CSCCCN)O[C@@H]7CSCCCN)O[C@@H]6CSCCCN)O[C@@H]5CSCCCN)O[C@@H]4CSCCCN)O[C@@H]3CSCCCN	>200		>200	>200	>200	191		
Cl.Cl.Cl.Cl.Cl.Cl.Cl.NCCCCSC[C@H]1O[C@@H]2O[C@H]3[C@H](O)[C@@H](O)[C@@H](O[C@H]4[C@H](O)[C@@H](O)[C@@H](O[C@H]5[C@H](O)[C@@H](O)[C@@H](O[C@H]6[C@H](O)[C@@H](O)[C@@H](O[C@H]7[C@H](O)[C@@H](O)[C@@H](O[C@H]8[C@H](O)[C@@H](O)[C@@H](O[C@H]1[C@H](O)[C@H]2O)O[C@@H]8CSCCCCN)O[C@@H]7CSCCCCN)O[C@@H]6CSCCCCN)O[C@@H]5CSCCCCN)O[C@@H]4CSCCCCN)O[C@@H]3CSCCCCN	>200	>200	>200	>200	>200	198		
N[C@@H](Cc1ccccc1)C(=O)NC[C@H]1O[C@@H]2O[C@H]3[C@H](O)[C@@H](O)[C@@H](O[C@H]4[C@H](O)[C@@H](O)[C@@H](O[C@H]5[C@H](O)[C@@H](O)[C@@H](O[C@H]6[C@H](O)[C@@H](O)[C@@H](O[C@H]7[C@H](O)[C@@H](O)[C@@H](O[C@H]8[C@H](O)[C@@H](O)[C@@H](O[C@H]1[C@H](O)[C@H]2O)O[C@@H]8CNC(=O)[C@@H](N)Cc1ccccc1)O[C@@H]7CNC(=O)[C@@H](N)Cc1ccccc1)O[C@@H]6CNC(=O)[C@@H](N)Cc1ccccc1)O[C@@H]5CNC(=O)[C@@H](N)Cc1ccccc1)O[C@@H]4CNC(=O)[C@@H](N)Cc1ccccc1)O[C@@H]3CNC(=O)[C@@H](N)Cc1ccccc1	>200	>200	>200	>200	>200		>2000	
N=C(N)NCCSC[C@H]1O[C@@H]2O[C@H]3[C@H](O)[C@@H](O)[C@@H](O[C@H]4[C@H](O)[C@@H](O)[C@@H](O[C@H]5[C@H](O)[C@@H](O)[C@@H](O[C@H]6[C@H](O)[C@@H](O)[C@@H](O[C@H]7[C@H](O)[C@@H](O)[C@@H](O[C@H]8[C@H](O)[C@@H](O)[C@@H](O[C@H]1[C@H](O)[C@H]2O)O[C@@H]8CSCCNC(=N)N)O[C@@H]7CSCCNC(=N)N)O[C@@H]6CSCCNC(=N)N)O[C@@H]5CSCCNC(=N)N)O[C@@H]4CSCCNC(=N)N)O[C@@H]3CSCCNC(=N)N	>200	>200	>200	>200	>200		510	
NCCCCC(=O)NC[C@H]1O[C@@H]2O[C@H]3[C@H](O)[C@@H](O)[C@@H](O[C@H]4[C@H](O)[C@@H](O)[C@@H](O[C@H]5[C@H](O)[C@@H](O)[C@@H](O[C@H]6[C@H](O)[C@@H](O)[C@@H](O[C@H]7[C@H](O)[C@@H](O)[C@@H](O[C@H]8[C@H](O)[C@@H](O)[C@@H](O[C@H]1[C@H](O)[C@H]2O)O[C@@H]8CNC(=O)CCCCN)O[C@@H]7CNC(=O)CCCCN)O[C@@H]6CNC(=O)CCCCN)O[C@@H]5CNC(=O)CCCCN)O[C@@H]4CNC(=O)CCCCN)O[C@@H]3CNC(=O)CCCCN	>200	>200	>200	>200	>200		755	
CC(C)(C)OC(=O)N[C@@H](Cc1ccccc1)C(=O)NC[C@H]1O[C@@H]2O[C@H]3[C@H](O)[C@@H](O)[C@@H](O[C@H]4[C@H](O)[C@@H](O)[C@@H](O[C@H]5[C@H](O)[C@@H](O)[C@@H](O[C@H]6[C@H](O)[C@@H](O)[C@@H](O[C@H]7[C@H](O)[C@@H](O)[C@@H](O[C@H]8[C@H](O)[C@@H](O)[C@@H](O[C@H]1[C@H](O)[C@H]2O)O[C@@H]8CNC(=O)[C@H](Cc1ccccc1)NC(=O)OC(C)(C)C)O[C@@H]7CNC(=O)[C@H](Cc1ccccc1)NC(=O)OC(C)(C)C)O[C@@H]6CNC(=O)[C@H](Cc1ccccc1)NC(=O)OC(C)(C)C)O[C@@H]5CNC(=O)[C@H](Cc1ccccc1)NC(=O)OC(C)(C)C)O[C@@H]4CNC(=O)[C@H](Cc1ccccc1)NC(=O)OC(C)(C)C)O[C@@H]3CNC(=O)[C@H](Cc1ccccc1)NC(=O)OC(C)(C)C	>200	>200	>200	>200	>200		193	>200
CC(C)C[C@H](NC(=O)OC(C)(C)C)C(=O)NC[C@H]1O[C@@H]2O[C@H]3[C@H](O)[C@@H](O)[C@@H](O[C@H]4[C@H](O)[C@@H](O)[C@@H](O[C@H]5[C@H](O)[C@@H](O)[C@@H](O[C@H]6[C@H](O)[C@@H](O)[C@@H](O[C@H]7[C@H](O)[C@@H](O)[C@@H](O[C@H]8[C@H](O)[C@@H](O)[C@@H](O[C@H]1[C@H](O)[C@H]2O)O[C@@H]8CNC(=O)[C@H](CC(C)C)NC(=O)OC(C)(C)C)O[C@@H]7CNC(=O)[C@H](CC(C)C)NC(=O)OC(C)(C)C)O[C@@H]6CNC(=O)[C@H](CC(C)C)NC(=O)OC(C)(C)C)O[C@@H]5CNC(=O)[C@H](CC(C)C)NC(=O)OC(C)(C)C)O[C@@H]4CNC(=O)[C@H](CC(C)C)NC(=O)OC(C)(C)C)O[C@@H]3CNC(=O)[C@H](CC(C)C)NC(=O)OC(C)(C)C	>200	>200	>200	>200	>200		144	>200
Cl.Cl.Cl.Cl.Cl.Cl.Cl.NCCCCCCSC[C@H]1O[C@@H]2O[C@H]3[C@H](O)[C@@H](O)[C@@H](O[C@H]4[C@H](O)[C@@H](O)[C@@H](O[C@H]5[C@H](O)[C@@H](O)[C@@H](O[C@H]6[C@H](O)[C@@H](O)[C@@H](O[C@H]7[C@H](O)[C@@H](O)[C@@H](O[C@H]8[C@H](O)[C@@H](O)[C@@H](O[C@H]1[C@H](O)[C@H]2O)O[C@@H]8CSCCCCCCN)O[C@@H]7CSCCCCCCN)O[C@@H]6CSCCCCCCN)O[C@@H]5CSCCCCCCN)O[C@@H]4CSCCCCCCN)O[C@@H]3CSCCCCCCN	>200		>200		>200	321		
Cl.Cl.Cl.Cl.Cl.Cl.Cl.Cl.Cl.Cl.Cl.Cl.Cl.Cl.NCCCC(N)C(=O)NCC1OC2OC3C(CNC(=O)C(N)CCCN)OC(OC4C(CNC(=O)C(N)CCCN)OC(OC5C(CNC(=O)C(N)CCCN)OC(OC6C(CNC(=O)C(N)CCCN)OC(OC7C(CNC(=O)C(N)CCCN)OC(OC8C(CNC(=O)C(N)CCCN)OC(OC1C(O)C2O)C(O)C8O)C(O)C7O)C(O)C6O)C(O)C5O)C(O)C4O)C(O)C3O (stereo not shown)	>200	>200		>200	>200	860		
Cl.Cl.Cl.Cl.Cl.Cl.NCC1OC2OC3C(CN)OC(OC4C(CN)OC(OC5C(CN)OC(OC6C(CN)OC(OC7C(CN)OC(OC1C(O)C2O)C(O)C7O)C(O)C6O)C(O)C5O)C(O)C4O)C(O)C3O (stereo not shown)	>200	>200		>200	>200		109.3	>200
Cl.Cl.Cl.Cl.Cl.Cl.Cl.NCc1ccccc1CSCC1OC2OC3C(CSCc4ccccc4CN)OC(OC4C(CSCc5ccccc5CN)OC(OC5C(CSCc6ccccc6CN)OC(OC6C(CSCc7ccccc7CN)OC(OC7C(CSCc8ccccc8CN)OC(OC8C(CSCc9ccccc9CN)OC(OC1C(O)C2O)C(O)C8O)C(O)C7O)C(O)C6O)C(O)C5O)C(O)C4O)C(O)C3O (stereo not shown)	>100		>100			193.5		
